Source: ChEMBL document CHEMBL3046510, “Synthesis and Fungicidal Activities of 4,5-Dihydro-7H-pyrano[3,4-c]isoxazole Derivatives” (1999)

Key:
Type in all cases: functional
Blumeria graminis = test: Fungicidal activity against Blumeria graminis infected on foliar spray based compound pre-treated first-leaf stage 7 day old barley plants assessed as barley powdery mildew disease control level at 250 ppm measured 7 days post fungal exposure relative to untreated control
Puccinia recondita [1] = test: Fungicidal activity against Puccinia recondita infected foliar spray based compound pre-treated first-leaf stage wheat plants assessed as wheat leaf rust disease control level at 250 ppm measured 10 days post fungal exposure relative to untreated control
Phytophthora infestans = test: Fungicidal activity against Phytophthora infestans zoosporangia infected on foliar spray based compound pre-treated 14 days old tomato plants assessed as tomato late blight disease control level at 250 ppm measured 4 days post fungal exposure relative to untreated control
Botrytis cinerea = test: Fungicidal activity against Botryotinia fuckeliana infected foliar spray based compound pre-treated first-leaf stage cucumber plants assessed as cucumber gray mold disease control level at 250 ppm measured 4 to 5 days post fungal exposure relative to untreated control
Rhizoctonia solani = test: Fungicidal activity against Rhizoctonia solani infected on foliar spray based compound pre-treated third-leaf stage rice plants assessed as rice sheath blight disease control level at 250 ppm measured 5 days post fungal exposure relative to untreated control
Puccinia recondita [2] = test: Fungicidal activity against Puccinia recondita infected foliar spray based compound pre-treated first-leaf stage wheat plants assessed as wheat leaf rust disease control level at 2 ppm measured 10 days post fungal exposure relative to untreated control
Puccinia recondita [3] = test: Fungicidal activity against Puccinia recondita infected foliar spray based compound pre-treated first-leaf stage wheat plants assessed as wheat leaf rust disease control level at 10 ppm measured 10 days post fungal exposure relative to untreated control
Puccinia recondita [4] = test: Fungicidal activity against Puccinia recondita infected foliar spray based compound pre-treated first-leaf stage wheat plants assessed as wheat leaf rust disease control level at 50 ppm measured 10 days post fungal exposure relative to untreated control

Structure (SMILES)	Activity (Blumeria graminis) [%]	Activity (Puccinia recondita [1]) [%]	Activity (Phytophthora infestans) [%]	Activity (Botrytis cinerea) [%]	Activity (Rhizoctonia solani) [%]	Activity (Puccinia recondita [2]) [%]	Activity (Puccinia recondita [3]) [%]	Activity (Puccinia recondita [4]) [%]
Clc1ccccc1C1OCCc2c1noc2COC1CCCCO1 (stereo not drawn)	16	86	0	0	47			
OCc1onc2c1CCOC2c1ccccc1Cl (stereo not drawn)	0	10	0	0	0			
O=Cc1onc2c1CCOC2c1ccccc1Cl (stereo not drawn)	83	53	21	0	17			
Clc1ccccc1C1OCCc2c1noc2CBr (stereo not drawn)	16	97	7	52	41			
ON=Cc1onc2c1CCOC2c1ccccc1Cl (stereo not drawn)	0	0	42	5	52			
CON=Cc1onc2c1CCOC2c1ccccc1Cl (stereo not drawn)	41	0	50	0	29			
Clc1ccc(C2OCCc3c2noc3COC2CCCCO2)cc1 (stereo not drawn)	0	0	9	0	0			
OCc1onc2c1CCOC2c1ccc(Cl)cc1 (stereo not drawn)	3	0	2	0	0			
O=Cc1onc2c1CCOC2c1ccc(Cl)cc1 (stereo not drawn)	0	0	19	30	0			
Clc1ccc(C2OCCc3c2noc3CBr)cc1 (stereo not drawn)	50	100	22	0	0	50	53	90
CCON=Cc1onc2c1CCOC2c1ccccc1Cl (mixture of isomers)	91	76	78	5	64			
C=CCON=Cc1onc2c1CCOC2c1ccccc1Cl (mixture of isomers)	80	46	14	0	17			
ON=Cc1onc2c1CCOC2c1ccc(Cl)cc1 (mixture of isomers)	0	86	10	0	45			
CON=Cc1onc2c1CCOC2c1ccc(Cl)cc1 (mixture of isomers)	96	12	0	28	65			
CCON=Cc1onc2c1CCOC2c1ccc(Cl)cc1 (mixture of isomers)	81	52	14	10	55			
C=CCON=Cc1onc2c1CCOC2c1ccc(Cl)cc1 (mixture of isomers)	100	96	7	10	75			
